Assay results from ChEMBL document CHEMBL5236665, “Accumulation of lankamycin derivative with a branched-chain sugar from a blocked mutant of chalcose biosynthesis in Streptomyces rochei 7434AN4” (2023).

What was measured:
Micrococcus luteus [1] = experiment: Antimicrobial activity against Micrococcus luteus assessed as inhibition of microbial growth; assay type: functional
Micrococcus luteus [2] = experiment: Antimicrobial activity against Micrococcus luteus assessed as inhibition of microbial growth at 0.03 to 3.33 ug/ml; assay type: functional; parameters: scale not given: the % may be the effect or the level left; settings: dose 0.03-3.33 µg/ml; at 0.03 to 3.33 µg/mL

| SMILES | MIC (Micrococcus luteus [1]) [µg/mL] | Activity (Micrococcus luteus [2]) [%] |
| --- | --- | --- |
| CO[C@H]1C[C@@H](C)O[C@@H](O[C@@H]2[C@@H](C)[C@H](O[C@H]3C[C@@](C)(OC)[C@H](OC(C)=O)[C@H](C)O3)[C@@H](C)C(=O)O[C@H]([C@@H](C)[C@H](C)O)[C@H](C)[C@H](OC(C)=O)[C@@H](C)C(=O)[C@@](C)(O)C[C@@H]2C)[C@@H]1O | 1 |  |
| CO[C@]1(C)C[C@H](O[C@H]2[C@H](C)[C@@H](O[C@@H]3O[C@H](C)C[C@](O)(C(C)=O)[C@H]3O)[C@@H](C)C[C@](C)(O)C(=O)[C@H](C)[C@@H](OC(C)=O)[C@@H](C)[C@@H]([C@@H](C)[C@H](C)O)OC(=O)[C@@H]2C)O[C@@H](C)[C@H]1OC(C)=O |  | 50 |
